# From US10905680B2, “Methods of treatment for cholestatic and fibrotic diseases” (Genfit, priority 2016, dated 2021)
# Legend:
# [1] = test system: human primary hepatic stellate cells (hHSC); assay: TGFβ1-induced expression of α-SMA protein in human HSC (ELISA); format: cell-based; settings: Homo sapiens, 1 h preincubation, TGFβ1 1 ng/ml, 48 hours, read-out: IC50 (level of α-SMA in TGFβ-induced HSCs)
# Protocol: Serum-deprived HSC were preincubated for 1 hour with NTZ (A) or TZ (B) before the activation with the profibrogenic cytokine TGFβ1 (1 ng/ml). After 48 hours of incubation, the expression of α-SMA was measured by ELISA. The obtained values were transformed into percentage inhibition over TGFβ1 control. Data are presented as mean (triplicates)±standard deviation (SD). Statistical analyses were performed by one-way ANOVA followed by Bonferroni post-hoc tests, using Sigma Plot 11.0 software. [*: p<0.05; **: p<0.01; ***: p<0.001 (comparison versus TGFβ1 1 ng/mL group)]. The curve fitting and the calculation of half maximal inhibitory concentration (IC50) were performed with XLFit software 5.3.1.3. The human primary hepatic stellate cells (hHSC) (Innoprot) were cultured in STeCM medium (ScienCell cat #5301) that was supplemented with 2% fetal bovine serum (FBS, ScienCell cat #0010), 1% penicillin/streptomycin (ScienCell cat #0503) and stellate cell growth supplement (SteCGS; ScienCell cat #5352). Cell culture flasks were coated with Poly-L Lysine (Sigma cat # P4707) for a better adherence. The human primary hepatic stellate cells (hHSC) (Innoprot) were cultured under standard conditions, as described above. The cells were subsequently plated at a density of 7×10^4 cells/well into 24-well plates for gene expression studies, and at a density of 2×10^4 cells/well into 96-well plates for the measure of α-SMA by ELISA. The next day, cell culture medium was removed, and cells were washed with PBS (Invitrogen cat #14190). hHSC were deprived for 24 hours in serum-free and SteCGS-free medium. For the treatments with NTZ or TZ, the serum-deprived hHSC were preincubated for 1 hour with the compounds followed by the addition of the profibrogenic stimuli TGFβ1 (PeproTech cat #100-21, 1 ng/mL) in serum-free and SteCGS-free medium for an additional 24 or 48 hour period (the timepoint is indicated in the figure legends). […] The level of α-SMA was measured using a Sandwich ELISA. […]
# [2] = test system: HSC; assay: Toxicity assays in HSC; format: cell-based, human; settings: data not shown
smiles,measurement,setting,value
"CC(=O)Oc1ccccc1C(=O)Nc1ncc([N+](=O)[O-])s1 [NTZ, [2-[(5-nitro-1,3-thiazol-2-yl)carbamoyl]phenyl]ethanoate, reference compound]",IC50,[1],100 to 3000 nM
same,toxicity or apoptosis of HSC,[2],not due to toxicity or apoptosis
